Results published in the supplement of paper PMC10307832.

What was measured:
Assay in all cases: relative viability (nuclei count vs DMSO), 5 days (fraction); higher = more cells survive
GSK-J4 + Olaparib = compound: CCOC(=O)CCNc1cc(N2CCc3ccccc3CC2)nc(-c2ccccn2)n1 [GSK-J4] + O=C(c1cc(Cc2n[nH]c(=O)c3ccccc23)ccc1F)N1CCN(C(=O)C2CC2)CC1 [Olaparib] (partner 8 µM)
Summary of the method: (§1)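 A single step with final 0.05% Triton X-100, 1% formaldehyde and 1 ug/ml Hoechst fixed the cells and stained nuclei 5 days after treatment. Lung cancer cell lines in 1536-well plates had been treated by pin tool the day after seeding with one drug alone or a fixed anchor-drug dose plus five library-drug doses (not always all listed) in √10 steps, and nuclei were counted on 4× images. Relative viability is the ratio of nuclei in treated wells to nuclei in vehicle wells, taken as the median of duplicate plates.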

GSK-J4 + Lapatinib = compound: CCOC(=O)CCNc1cc(N2CCc3ccccc3CC2)nc(-c2ccccn2)n1 [GSK-J4] + CS(=O)(=O)CCNCc1ccc(-c2ccc3ncnc(Nc4ccc(OCc5cccc(F)c5)c(Cl)c4)c3c2)o1 [Lapatinib] (partner 2 µM)
Summary of the method: as §1

GSK-J4 + Tozasertib = compound: CCOC(=O)CCNc1cc(N2CCc3ccccc3CC2)nc(-c2ccccn2)n1 [GSK-J4] + Cc1cc(Nc2cc(N3CCN(C)CC3)nc(Sc3ccc(NC(=O)C4CC4)cc3)n2)n[nH]1 [Tozasertib] (partner 0.1 µM)
Summary of the method: as §1

GSK-J4 + Bortezomib = compound: CCOC(=O)CCNc1cc(N2CCc3ccccc3CC2)nc(-c2ccccn2)n1 [GSK-J4] + CC(C)C[C@H](NC(=O)[C@H](Cc1ccccc1)NC(=O)c1cnccn1)B(O)O [Bortezomib] (partner 0.002 µM)
Summary of the method: as §1

Cell Line	relative viability (GSK-J4 + Olaparib; first compound 0.5 µM)	relative viability (GSK-J4 + Olaparib; first compound 5 µM)	relative viability (GSK-J4 + Olaparib; first compound 15.81 µM)	relative viability (GSK-J4 + Olaparib; first compound 50 µM)	relative viability (GSK-J4 + Lapatinib; first compound 0.5 µM)	relative viability (GSK-J4 + Lapatinib; first compound 1.581 µM)	relative viability (GSK-J4 + Lapatinib; first compound 5 µM)	relative viability (GSK-J4 + Lapatinib; first compound 15.81 µM)	relative viability (GSK-J4 + Lapatinib; first compound 50 µM)	relative viability (GSK-J4 + Tozasertib; first compound 0.5 µM)	relative viability (GSK-J4 + Tozasertib; first compound 1.581 µM)	relative viability (GSK-J4 + Tozasertib; first compound 5 µM)	relative viability (GSK-J4 + Tozasertib; first compound 15.81 µM)	relative viability (GSK-J4 + Tozasertib; first compound 50 µM)	relative viability (GSK-J4 + Bortezomib; first compound 0.5 µM)	relative viability (GSK-J4 + Bortezomib; first compound 1.581 µM)	relative viability (GSK-J4 + Bortezomib; first compound 5 µM)	relative viability (GSK-J4 + Bortezomib; first compound 15.81 µM)	relative viability (GSK-J4 + Bortezomib; first compound 50 µM)	relative viability (GSK-J4 + Olaparib; first compound 1.581 µM)
EKVX	0.867	0.859	0.681	0.703	0.216	0.205	0.261	0.197	0.171	0.379	0.213	0.406	0.346	0.334	0.981	0.961	1.28	1.01	0.963	
NCI-H3122	0.539	0.668	0.575	0.504	0.966	0.989	1	0.964	0.911	0.516		0.371	0.275	0.442	0.938	0.982	0.986	1.02	0.993	0.578
NCI-H2023	0.453	0.472	0.379	0.348	0.827	0.0641	0.727	0.641	0.474	0.384		0.335	0.371	0.222	0.912	0.71	0.878	0.799	0.801	0.413
NCI-H460	0.384		0.433	0.343	1.05	0.924	0.809	0.955	0.364	0.41	0.387	0.344	0.294	0.283	1.02	0.888	1	1.04	0.985	
PC-3 [JPC-3]	1.06	0.996	1.07	0.801	0.47	0.385	0.578	0.43	0.427	0.838	0.824	0.883	0.815	0.702	0.77	0.764	0.705	0.789	0.816	1.06
HCC-15	0.702	0.644	0.644	0.424	0.827	0.436	0.724	0.754	0.644	0.393		0.344	0.319	0.2	1.01	0.527	0.943	1.01	0.906	0.632
NCI-H2228	0.555	0.583	0.728	0.903	1.11	0.598	1.17	0.943	0.938	0.221	0.237	0.246	0.247	0.212	0.745	0.913	0.973	0.906	0.937	0.608
NCI-H1650	0.852	0.871	0.639	0.509	0.751	0.174	0.731	0.634	0.327	0.369	0.393	0.333	0.311	0.301	0.17	0.164	0.219	0.174	0.232	0.739
NCI-H1975	0.729	0.579	0.795	0.849	0.873	0.971		0.929	1.19	0.721	0.716	0.539	0.659	0.798	0.383	0.354		0.368	0.413	0.715
NCI-H727	0.597	0.581	0.718	0.472	0.827		0.996	0.795	0.5	0.714	0.541	0.621	0.585	0.463	0.934		1.19	0.954	0.35	0.596
COR-L23	0.279		0.306	0.293	0.881	0.917		0.927	0.615	0.171	0.211		0.158	0.136	0.944	0.815		1.01	0.729	0.311
201T	0.81	0.831	0.797	0.81	0.988	1.08	0.983	1.04	0.992	0.801	0.971	0.96	0.901	0.836	1.03	1.08	1.05	1.14	1.09	0.581
HCC-827	0.622	0.767	0.589	0.36	0.197	0.229	0.207	0.212	0.16	0.408	0.434	0.44	0.4	0.362	1.02	0.95	0.883	1.11	1.04	0.65
NCI-H650	0.356		0.272	0.296	0.841	0.579	0.614	0.783	0.614	0.677	0.727	0.432	0.526	0.459	0.76	0.525	0.495	0.663	0.663	0.371
HARA	0.767		0.888	0.343	0.729	0.706		0.699	0.554	0.124			0.103	0.117	1.1	1		1.09	1.08	0.761
NCI-H661	0.704	0.7	0.559	0.461	0.483	0.472	0.405	0.349	0.386	0.355	0.3	0.357	0.335	0.413	0.896	0.852	0.791	0.589	0.583	0.67
NCI-H2087	0.525	0.439	0.542	0.371	0.794	0.514		1.01	0.57	0.265		0.281	0.217	0.251	0.789	0.763		0.701	0.72	0.535
